What was measured:
[1] = in vivo; cited from earlier work
Slurry studies = format: physicochemical; settings: 90/10 IPA/water, ambient temperature, 72 hrs
Protocol: Form 1 (20 mg) was suspended in 90/10 IPA/water (200 μL or […]) and shaken at ambient temperature for 72 hrs. The supernatant was evaporated rather than filtered due to the small volume and the resulting solid was examined by XRPD (FIG. 6).
The supernatant was evaporated rather than filtered due to the small volume and the resulting solid was examined by XRPD (FIG. 28).
The supernatant was evaporated rather than filtered due to the small volume and the resulting solid was examined by XRPD (FIG. 34).
The supernatant was evaporated rather than filtered due to the small volume and the resulting solid was examined by XRPD (FIG. 40).

[2] = Visual aqueous solubility; format: physicochemical; settings: water, thermodynamic from solid
Protocol: Form 1 (10 mg) was weighed into a glass vial and water was added in 100 μL portions up to 3 mL then 1 mL portions thereafter. Solubility was assessed visually following a brief period of equilibration.
Form 18 (10 mg) was weighed into a glass vial and water was added in 100 μL portions up to 3 mL then 1 mL portions thereafter. Solubility was assessed visually following a brief period of equilibration.
Form 8 (10 mg) was weighed into a glass vial and water was added in 100 μL portions up to 3 mL then 1 mL portions thereafter. Solubility was assessed visually following a brief period of equilibration.
Form 15 (10 mg) was weighed into a glass vial and water was added in 100 μL portions up to 3 mL then 1 mL portions thereafter. Solubility was assessed visually following a brief period of equilibration.
Form 16 (10 mg) was weighed into a glass vial and water was added in 100 μL portions up to 3 mL then 1 mL portions thereafter. Solubility was assessed visually following a brief period of equilibration.

[3] = Gravimetric Vapour Sorption (GVS); format: physicochemical
Protocol: Gravimetric Vapour Sorption (GVS) data were collected using the following method: Approximately 10 mg of sample was placed into a wire-mesh vapour sorption balance pan and loaded into an ‘IgaSorp’ vapour sorption balance (Hiden Analytical Instruments). The sample was then dried by maintaining a 0% humidity environment until no further weight change was recorded. Subsequently, the sample was then subjected to a ramping profile from 0-90% RH at 10% RH increments, maintaining the sample at each step until equilibration had been attained (99% step completion). Upon reaching equilibration, the % RH within the apparatus was ramped to the next step and the equilibration procedure repeated. After completion of the sorption cycle, the sample was then dried using the same procedure. The weight change during the sorption/desorption cycles were then monitored, allowing for the hygroscopic nature of the sample to be determined.

[4] = Stability study of Form 1 (double polyethylene bags, HDPE bottle); format: physicochemical; settings: for Change in the XRPD diffractogram on storage: after 1 month and 3 months
Protocol: Further evidence of the suitability of the crystalline forms of N-[(3-fluoro-4-methoxypyridin-2-yl)methyl]-3-(methoxymethyl)-1-({4-[(2-oxopyridin-1-yl)methyl]phenyl}methyl)pyrazole-4-carboxamide for pharmaceutical development is provided by the stability data disclosed herein. Two samples of Form 1 of N-[(3-fluoro-4-methoxypyridin-2-yl)methyl]-3-(methoxymethyl)-1-({4-[(2-oxopyridin-1-yl)methyl]phenyl}methyl)pyrazole-4-carboxamide were stored at 25° C./60% RH and 40° C./75% RH packed in double polyethylene bags and sealed in a HDPE bottle.
A sample of Form 1 was packed in double polyethylene bags and sealed in a HDPE bottle and stored at conditions of 25° C./60% RH. The sample was reanalysed after 1 month and 3 months by XRPD (using Method B). No change in the XRPD diffractogram was observed when the sample was stored at 25° C./60% RH after either 1 month or 3 months.
Further tests on the sample of Form 1 stored at 25° C./60% RH were carried out as described in the table below:
A second sample of Form 1 was packed in double polyethylene bags and sealed in a HDPE bottle and stored under accelerated stability conditions of 40° C./75% RH. The sample was reanalysed after 1 month and 3 months by XRPD (using Method B). No change in the XRPD diffractogram was observed when the sample was stored at 40° C./75% RH after either 1 month or 3 months.
Further tests on the sample of Form 1 stored at 40° C./75% RH were carried out as described in the table below: […]

Human KLK1 = target: T1, Human KLK1 (Homo sapiens, UniProt P06870); test: Determination of the IC50 for KLK1; format: biochemical; settings: 25° C., fluorogenic substrate H-DVal-Leu-Arg-AFC
T1 construct: purchased Callbiochem
Protocol: KLK1 inhibitory activity in vitro was determined using standard published methods (see e.g. Johansen et al., Int. J. Tiss. Reac. 1986, 8, 185; Shori et al., Biochem. Pharmacol., 1992, 43, 1209; Sturzebecher et al., Biol. Chem. Hoppe-Seyler, 1992, 373, 1025). Human KLK1 (Callbiochem) was incubated at 25° C. with the fluorogenic substrate H-DVal-Leu-Arg-AFC and various concentrations of the test compound. Residual enzyme activity (initial rate of reaction) was determined by measuring the change in […] at 410 nm and the IC50 value for the test compound was determined.

[5] = system: LPS-induced disseminated intravascular coagulation; settings: cited from earlier work
[6] = system: intrinsic pathway of coagulation; settings: in vitro; cited from earlier work
blood = blood contacted with inhibitor; cited from earlier work
[7] = in vivo; cited from earlier work; remark: listed apart in the source

T1 sequence (P06870 25-262): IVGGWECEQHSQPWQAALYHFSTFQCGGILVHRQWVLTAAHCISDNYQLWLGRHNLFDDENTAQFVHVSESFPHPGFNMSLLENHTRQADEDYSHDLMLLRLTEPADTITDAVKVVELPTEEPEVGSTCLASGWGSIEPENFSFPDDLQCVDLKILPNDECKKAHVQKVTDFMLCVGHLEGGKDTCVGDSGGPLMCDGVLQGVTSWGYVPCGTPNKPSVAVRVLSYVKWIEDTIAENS

C=Cc1cc(C(=O)Nc2ccc(C(=N)N)cc2)c(-c2ccc(C(=O)NCC3CC3)nc2C(=O)O)cc1OC [BCX4161]
Oral availability [1]: orally available

COCc1nn(Cc2ccc(Cn3ccccc3=O)cc2)cc1C(=O)NCc1nccc(OC)c1F [Form 1, N-[(3-fluoro-4-methoxypyridin-2-yl)methyl]-3-(methoxymethyl)-1-({4-[(2-oxopyridin-1-yl)methyl]phenyl}methyl)pyrazole-4-carboxamide]
XRPD of solid after slurry versus starting form (Slurry studies): different to that of FIG. 2a
solubility [2]: < 500 µg/mL
%-Wt (dry basis) ([3]; adsorption, about 0 %-RH): 0.04722%
%-Wt (dry basis) ([3]; adsorption, about 10 %-RH): 0.23%
%-Wt (dry basis) ([3]; adsorption, about 20 %-RH): 0.3541%
%-Wt (dry basis) ([3]; adsorption, about 30 %-RH): 0.7126%
%-Wt (dry basis) ([3]; adsorption, about 40 %-RH): 0.825%
%-Wt (dry basis) ([3]; adsorption, about 50 %-RH): 1.207%
%-Wt (dry basis) ([3]; adsorption, about 60 %-RH): 1.699%
%-Wt (dry basis) ([3]; adsorption, about 70 %-RH): 1.912%
%-Wt (dry basis) ([3]; adsorption, about 80 %-RH): 2.186%
%-Wt (dry basis) ([3]; adsorption, about 90 %-RH): 3.226%
%-Wt (dry basis) ([3]; desorption, about 0 %-RH): 0.000368%
%-Wt (dry basis) ([3]; desorption, about 5 %-RH): 0.1269%
%-Wt (dry basis) ([3]; desorption, about 15 %-RH): 0.5017%
%-Wt (dry basis) ([3]; desorption, about 25 %-RH): 0.7008%
%-Wt (dry basis) ([3]; desorption, about 35 %-RH): 1.017%
%-Wt (dry basis) ([3]; desorption, about 45 %-RH): 1.525%
%-Wt (dry basis) ([3]; desorption, about 55 %-RH): 1.685%
%-Wt (dry basis) ([3]; desorption, about 65 %-RH): 1.865%
%-Wt (dry basis) ([3]; desorption, about 75 %-RH): 2.116%
%-Wt (dry basis) ([3]; desorption, about 85 %-RH): 2.547%
Increase in water content by GVS (hygroscopicity, in words) ([3]; up to 70% relative humidity): only a relatively gradual increase in water content
Appearance ([4]; 25° C./60% RH, 1 month): Off-white
Assay by HPLC (on an anhydrous and solvent free basis) ([4]; 25° C./60% RH, 1 month): 99.5 % w/w
DSC Tonset ([4]; 25° C./60% RH, 1 month): 151.1 °C
DSC Tpeak ([4]; 25° C./60% RH, 1 month): 152.4 °C
HPLC assay (on an “as is” basis) ([4]; 25° C./60% RH, 1 month): 99.4 % w/w
Polymorph by XRPD ([4]; 25° C./60% RH, 1 month): Conforms to
Purity by HPLC ([4]; 25° C./60% RH, 1 month): 99.62 area %
Total impurities ([4]; 25° C./60% RH, 1 month): 0.38 area %
Water by Karl Fischer analysis ([4]; 25° C./60% RH, 1 month): <0.1 % w/w
Appearance ([4]; 25° C./60% RH, 3 months): Off-white
Assay by HPLC (on an anhydrous and solvent free basis) ([4]; 25° C./60% RH, 3 months): 99.6 % w/w
DSC Tonset ([4]; 25° C./60% RH, 3 months): 150.8 °C
DSC Tpeak ([4]; 25° C./60% RH, 3 months): 152.2 °C
HPLC assay (on an “as is” basis) ([4]; 25° C./60% RH, 3 months): 99.5 % w/w
Polymorph by XRPD ([4]; 25° C./60% RH, 3 months): Conforms to
Purity by HPLC ([4]; 25° C./60% RH, 3 months): 99.70 area %
Total impurities ([4]; 25° C./60% RH, 3 months): 0.30 area %
Water by Karl Fischer analysis ([4]; 25° C./60% RH, 3 months): <0.1 % w/w
Appearance ([4]; 25° C./60% RH, Initial): Off-white
Assay by HPLC (on an anhydrous and solvent free basis) ([4]; 25° C./60% RH, Initial): 101.0 % w/w
DSC Tonset ([4]; 25° C./60% RH, Initial): 151.3 °C
DSC Tpeak ([4]; 25° C./60% RH, Initial): 152.9 °C
HPLC assay (on an “as is” basis) ([4]; 25° C./60% RH, Initial): 100.9 % w/w
Polymorph by XRPD ([4]; 25° C./60% RH, Initial): Conforms to
Purity by HPLC ([4]; 25° C./60% RH, Initial): 99.70 area %
Total impurities ([4]; 25° C./60% RH, Initial): 0.30 area %
Water by Karl Fischer analysis ([4]; 25° C./60% RH, Initial): <0.1 % w/w
Change in the XRPD diffractogram on storage ([4]; 25° C./60% RH): no change
Appearance ([4]; 40° C./75% RH, 1 month): Off-white
Assay by HPLC (on an anhydrous and solvent free basis) ([4]; 40° C./75% RH, 1 month): 99.5 % w/w
DSC Tonset ([4]; 40° C./75% RH, 1 month): 151.1 °C
DSC Tpeak ([4]; 40° C./75% RH, 1 month): 152.3 °C
HPLC assay (on an “as is” basis) ([4]; 40° C./75% RH, 1 month): 99.4 % w/w
Polymorph by XRPD ([4]; 40° C./75% RH, 1 month): Conforms to
Purity by HPLC ([4]; 40° C./75% RH, 1 month): 99.57 area %
Total impurities ([4]; 40° C./75% RH, 1 month): 0.43 area %
Water by Karl Fischer analysis ([4]; 40° C./75% RH, 1 month): <0.1 % w/w
Appearance ([4]; 40° C./75% RH, 3 months): Off-white
Assay by HPLC (on an anhydrous and solvent free basis) ([4]; 40° C./75% RH, 3 months): 100.0 % w/w
DSC Tonset ([4]; 40° C./75% RH, 3 months): 150.6 °C
DSC Tpeak ([4]; 40° C./75% RH, 3 months): 152.5 °C
HPLC assay (on an “as is” basis) ([4]; 40° C./75% RH, 3 months): 99.9 % w/w
Polymorph by XRPD ([4]; 40° C./75% RH, 3 months): Conforms to
Purity by HPLC ([4]; 40° C./75% RH, 3 months): 99.71 area %
Total impurities ([4]; 40° C./75% RH, 3 months): 0.29 area %
Water by Karl Fischer analysis ([4]; 40° C./75% RH, 3 months): 0.1 % w/w
Appearance ([4]; 40° C./75% RH, Initial): Off-white
Assay by HPLC (on an anhydrous and solvent free basis) ([4]; 40° C./75% RH, Initial): 101.0 % w/w
DSC Tonset ([4]; 40° C./75% RH, Initial): 151.3 °C
DSC Tpeak ([4]; 40° C./75% RH, Initial): 152.9 °C
HPLC assay (on an “as is” basis) ([4]; 40° C./75% RH, Initial): 100.9 % w/w
Polymorph by XRPD ([4]; 40° C./75% RH, Initial): Conforms to
Purity by HPLC ([4]; 40° C./75% RH, Initial): 99.70 area %
Total impurities ([4]; 40° C./75% RH, Initial): 0.30 area %
Water by Karl Fischer analysis ([4]; 40° C./75% RH, Initial): <0.1 % w/w
Change in the XRPD diffractogram on storage ([4]; 40° C./75% RH): no change

COCc1nn(Cc2ccc(Cn3ccccc3=O)cc2)cc1C(=O)NCc1nccc(OC)c1F [N-[(3-fluoro-4-methoxypyridin-2-yl)methyl]-3-(methoxymethyl)-1-({4-[(2-oxopyridin-1-yl)methyl]phenyl}methyl)pyrazole-4-carboxamide]
IC50 (Human KLK1): > 40 µM

Cl.NCC1CCC(C(=O)N[C@@H](Cc2ccccc2)C(=O)Nc2ccc(CC(=O)O)cc2)CC1 (stereo partly shown) [PKSI-527]
Effect on platelet count, fibrinogen level and FDP level [5]: significantly suppressed the decrease in platelet count and fibrinogen level as well as the increase in FDP level

Ecallantide
Contact activated induced coagulation [6]: delay contact activated induced coagulation
Activated clotting time (ACT) (blood): increase in activated clotting time (ACT)
Anaphylactic reactions [7]: risks of anaphylactic reactions

Source: patent US11739068B2, “Polymorphs of N-[(3-fluoro-4-methoxypyridin-2-yl)methyl]-3-(methoxymethyl)-1-({4-[(2-oxopyridin-1-yl)methyl]phenyl}methyl)pyrazole-4-carboxamide and salts thereof” (KALVISTA PHARMACEUTICALS LIMITED, priority 2016, dated 2023)
